Measurements from PubChem BioAssay (NCI).
Values joined by “and” are separate entries in the source; they are usually repeats but may differ in a detail not shown here. Equal values may be shown once.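 All cell lines were grown in 96-well plates and treated with compound for 48 hours. GI50 is the concentration that inhibits growth by half. TGI: concentration producing complete growth inhibition.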

Columns and labels:
Assay in all cases: NCI anticancer screen, dose series, 48 h
A498 renal = test system: A498 renal
HOP-62 NSCLC = test system: HOP-62 NSCLC
HT29 colon = test system: HT29 colon
NCI-H522 lung = test system: NCI-H522 lung
OVCAR-5 ovarian = test system: OVCAR-5 ovarian
OVCAR-8 ovarian = test system: OVCAR-8 ovarian
SK-MEL-2 melanoma = test system: SK-MEL-2 melanoma
SNB-19 CNS = test system: SNB-19 CNS
SNB-75 CNS = test system: SNB-75 CNS
TK-10 renal = test system: TK-10 renal

| Compound | TGI (A498 renal) | TGI (HOP-62 NSCLC) [µM] | TGI (HT29 colon) | TGI (NCI-H522 lung) | TGI (OVCAR-5 ovarian) [µM] | TGI (OVCAR-8 ovarian) | TGI (SK-MEL-2 melanoma) | TGI (SNB-19 CNS) [µM] | TGI (SNB-75 CNS) [µM] | TGI (TK-10 renal) | GI50 (A498 renal) [µM] | GI50 (HOP-62 NSCLC) [µM] | GI50 (HT29 colon) [µM] | GI50 (NCI-H522 lung) [µM] | GI50 (OVCAR-5 ovarian) [µM] | GI50 (OVCAR-8 ovarian) [µM] | GI50 (SK-MEL-2 melanoma) [µM] | GI50 (SNB-19 CNS) [µM] | GI50 (SNB-75 CNS) [µM] | GI50 (TK-10 renal) [µM] |
| --- | --- | --- | --- | --- | --- | --- | --- | --- | --- | --- | --- | --- | --- | --- | --- | --- | --- | --- | --- | --- |
| CCCCCCCCCCCCCCCCOC(=O)C(C(=O)OCCCCCCCCCCCCCCCC)[N+](C)(C)CCOC(C)=O | 57.5 µM | 25.8 | 25.9 µM | 23.3 µM | 35.1 | 37.3 µM | 36.8 µM | 43.8 | 35.6 | 26.5 µM | – | – | – | – | – | – | – | – | – | – |
| O=C(Nc1cccc(Cl)c1)Nc1cccc(Cl)c1 | > 100 µM | > 88.8 | > 100 µM | > 100 µM | > 100 | > 100 µM | > 100 µM | > 100 | 44.3 | > 100 µM | 2.87 | 21.9 | 2.26 | 2.04 | > 100 | 15.3 | > 21.5 | > 42.9 | 2.49 | > 100 |
| CC(=O)NNc1nc(C)c(C(=O)NNC(=O)C(=O)Nc2ccc(C)c(C)c2)s1 | > 100 µM | > 100 | > 100 µM | 46.3 µM | > 100 | > 100 µM | > 100 µM | > 100 | > 100 | > 100 µM | – | – | – | – | – | – | – | – | – | – |
| CC(C)=CC/C=C(/C)[C@H]1CC[C@]2(C)[C@@H]1CC[C@@H]1[C@@]3(C)CCC(=O)NC(C)(C)[C@@H]3CC[C@]12C | 67.5 µM | 44.7 | 72.3 µM | 40.2 µM | 39.5 | 76.7 µM | 82.8 µM | 72.4 | 55.1 | > 100 µM | 23.6 | 20.8 | 20.4 | 18.4 | 19.3 | 26 | 27.6 | 25 | 20.9 | 47.5 |
| CN(C)CC(C(=O)c1ccccc1)c1ccccc1 (centres undefined) | 18.4 µM | 23.5 | 2.15 µM | 2.79 µM | 16.8 | 6.56 µM | 7.87 µM | 19.4 | 14.4 | 2.67 µM | 4.44 | 11.3 | 0.662 | 1.3 | 5.93 | 1.99 | 3.35 | 6.1 | 3.54 | 1.3 |
| COc1ccc(/C=C/C(=O)c2sc(N)nc2C)cc1 | > 100 µM | > 100 | > 100 µM | > 100 µM | > 100 | > 100 µM | > 100 µM | > 100 | > 100 | > 100 µM | – | – | – | – | – | – | – | – | – | – |
| COC1=C(OC)C(=O)C(/C=C(\C)C(=O)O)=C(C)C1=O | > 100 µM | > 100 | > 100 µM | > 100 µM | > 100 | > 100 µM | > 100 µM | > 100 | > 100 | > 100 µM | > 100 | > 100 | > 100 | > 100 | > 100 | > 100 | > 100 | > 100 | 49.1 | > 100 |
| Nc1nc(-c2ccccc2)c(-c2ccccc2)c(-c2nc(N)nc(-c3ccccc3)c2-c2ccccc2)n1 | > 100 µM | > 100 | > 100 µM | > 100 µM | > 100 | > 100 µM | > 100 µM | > 100 | > 100 | > 100 µM | – | – | – | – | – | – | – | – | – | – |
| CC1=C(N2CC2)C(=O)C(CO)=C(N2CC2)C1=O | 0.041 µM and 0.22 µM | 0.0569 | 0.148 µM and 0.435 µM | 0.0385 µM and 0.0489 µM | 0.74 | 0.0701 µM and 0.0799 µM | 0.0988 µM and 0.585 µM | – | 0.38 | 0.721 µM and 0.309 µM | 0.0158 | 0.0219 | – | 0.0112 | 0.194 | 0.0145 | – | 0.0025 | – | 0.0405 |
| Clc1ccc(-c2nc3c(-c4ccc(Cl)cc4)nc(-c4ccccc4)cn3c2-c2ccc(Cl)cc2)cc1 | > 50 µM | > 50 | > 50 µM | > 50 µM | > 50 | > 50 µM | > 50 µM | > 50 | 25.7 | > 50 µM | > 50 | 16 | > 50 | 44.7 | > 50 | > 50 | 26 | > 50 | 6.56 | 34.3 |
| COC(=O)CCC(NC(=S)N/N=C(\C)c1ccccn1)C(=O)OC (centres undefined) | > 100 µM | > 100 | > 100 µM | > 100 µM | > 100 | > 100 µM | > 100 µM | > 100 | > 100 | > 100 µM | – | – | – | – | – | – | – | – | – | – |
| COc1cc(CNC(=O)/C=C/C=C/c2ccc3c(c2)OCO3)ccc1OCc1cn(-c2ccc(Cl)c(Cl)c2)nn1 | 3.22 µM | 3.86 | 8.18 µM | 5.11 µM | 3.99 | 8.15 µM | 3.86 µM | 12.4 | 5.99 | 7.65 µM | 1.57 | 1.79 | 2.49 | 1.81 | 1.77 | 2.35 | 1.74 | 2.5 | 1.94 | 2.31 |
| N#Cc1ccc(Oc2nccc(-c3c(-c4ccc(F)cc4)ncn3C3CCNCC3)n2)cc1 | > 25 µM | > 25 | 8.03 µM | > 15.6 µM | > 25 | > 25 µM | > 25 µM | > 25 | > 25 | > 25 µM | > 25 | > 25 | 3.76 | > 11.9 | > 25 | > 16.6 | > 25 | > 25 | > 16 | > 25 |
| Cc1c2ccccc2c(C)c2c3c(ccc12)C(=O)C=CC3=O | > 100 µM | > 90.9 | > 65.8 µM | 28 µM | > 100 | 28.7 µM | > 84.6 µM | > 100 | > 100 | 36.7 µM | – | – | – | – | – | – | – | – | – | – |
| c1cncc(CNc2ccccc2-c2nnc(Nc3ccc4c(c3)OCO4)o2)c1 | > 100 µM | > 81 | 1.27 µM | 0.0709 µM | > 100 | > 100 µM | 91.9 µM | > 100 | > 100 | > 46.8 µM | 0.0199 | 0.085 | 0.037 | 0.0247 | 0.347 | 0.127 | 0.052 | 0.112 | 0.0246 | 1.18 |
| COc1cccc(Nc2nc(NNC(=O)Cc3ccccc3)nc(NNC(=O)c3ccncc3)n2)c1 | > 100 µM | > 100 | > 100 µM | > 100 µM | > 100 | > 100 µM | > 100 µM | > 100 | > 100 | > 100 µM | – | > 100 | – | – | – | > 100 | – | – | – | > 100 |
| CCN1CCC[C@H]1c1cc(O)c2c(c1OC)C[C@H]1C[C@H]3[C@H](N)C(=O)C(C(N)=O)=C(O)[C@@]3(O)C(=O)C1=C2O | 0.2 µM | 1.67 | 5.43 µM | 0.799 µM | 4.12 | 3.01 µM | 0.158 µM | 2.04 | 1.58 | 2.42 µM | 0.0315 | 0.0517 | 0.112 | 0.0562 | 0.187 | 0.0587 | 0.0336 | 0.113 | 0.0609 | 0.0626 |
| O=C1NC(=NCC(CO)c2ccccc2)S/C1=C\c1ccc2ncccc2c1 (centres undefined) | > 25 µM | > 25 | > 25 µM | > 25 µM | > 25 | > 25 µM | > 25 µM | > 25 | > 25 | > 25 µM | > 15.3 | 23.9 | 19.7 | > 14.1 | > 25 | > 25 | > 25 | > 25 | > 7 | > 21.8 |
| C/C(CN1C(=O)c2ccccc2C1=O)=N\NS(=O)(=O)c1ccccc1 | > 100 µM | > 100 | > 100 µM | > 100 µM | > 100 | > 100 µM | > 100 µM | > 100 | > 100 | > 100 µM | – | – | – | – | – | – | – | – | – | – |
| CCN1CCN(CCOc2ccc(CNc3ccc4nc(CCC5CCCCC5)[nH]c4c3)cc2)CC1 | 3.35 µM | 4.63 | 2.38 µM | 5.95 µM | 7.18 | 7.04 µM | 3.77 µM | 13 | 4.07 | 8.06 µM | 1.44 | 1.99 | 0.563 | 2.44 | 2.33 | 2.45 | 1.92 | 3.58 | 1.66 | 2.93 |
| CCOP(=O)(CCP(=O)(OCC)OCC)OCC.C[CH2][Sn]([Cl])([Cl])[CH2]C | 26 µM | > 100 | > 93.6 µM | 4.97 µM | > 100 | > 100 µM | 43.1 µM | 49.9 | 69.3 | 52 µM | 17.4 | > 91.3 | 62.7 | 1.64 | 72 | > 100 | 18.9 | 31.2 | 26.4 | 30.6 |
